Data on 29 compounds can be found in patent publication US20220380374A1, “1,4-DIHYDROBENZO[D]PYRAZOLO[3,4-F][1,3]DIAZEPINE DERIVATIVES AND RELATED COMPOUNDS AS LRRK2, NUAK1 AND/OR TYK2 KINASE MODULATORS FOR THE TREATMENT OF E.G. AUTOIMMUNE DISEASE” (Origenis GMBH, priority 2019, published 2022).

For the assay, the target named is T1, wt human NUAK1, full length (Homo sapiens, UniProt O60285).
T1 construct: 8 nM wt human NUAK1, full length (ThermoFisher/USA); purchased ThermoFisher/USA
T1 sequence (O60285 1-661): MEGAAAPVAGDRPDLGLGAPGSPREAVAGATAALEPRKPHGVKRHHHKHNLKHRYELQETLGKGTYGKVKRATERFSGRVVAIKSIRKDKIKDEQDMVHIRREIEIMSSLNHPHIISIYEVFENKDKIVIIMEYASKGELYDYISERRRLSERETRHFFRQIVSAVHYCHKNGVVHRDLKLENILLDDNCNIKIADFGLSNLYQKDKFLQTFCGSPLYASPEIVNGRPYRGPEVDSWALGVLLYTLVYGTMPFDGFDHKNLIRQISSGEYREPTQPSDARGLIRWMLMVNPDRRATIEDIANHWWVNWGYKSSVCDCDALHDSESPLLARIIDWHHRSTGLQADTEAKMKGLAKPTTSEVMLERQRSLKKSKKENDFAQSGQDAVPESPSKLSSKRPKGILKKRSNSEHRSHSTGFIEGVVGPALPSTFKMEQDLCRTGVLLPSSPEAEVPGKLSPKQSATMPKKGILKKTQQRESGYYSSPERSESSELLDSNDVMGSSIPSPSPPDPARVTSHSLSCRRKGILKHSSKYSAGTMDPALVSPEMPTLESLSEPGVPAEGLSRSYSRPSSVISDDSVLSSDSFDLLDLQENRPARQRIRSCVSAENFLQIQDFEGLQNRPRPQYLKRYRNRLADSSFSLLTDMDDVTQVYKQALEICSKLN
Description: TR-FRET LanthaScreen Eu Kinase Binding Assay, NUAK1. The note with it: 5 nM Kinase Tracer 236; read-out: IC50, inhibitory activity toward NUAK1. The procedure:
The basic protocol for TR-FRET LanthaScreen Eu Kinase Binding Assay inhibitor studies were performed as follows. LanthaScreen Kinase Binding Assays (ThermoFisher/USA) to evaluate inhibitors were performed by addition of 5 μl of test compound in corresponding DMSO dilutions/5 μl of kinase/antibody mixture, 5 μl of tracer into 384 well small volume plates. After incubation for 1 hour at room temperature, plates were read. Data analysis of emission ratios was according to LanthaScreen Eu Kinase Binding Assay protocol.
Kinase and assay components were adjusted to final concentrations according to the kit protocol. For LRRK2: 5 nM wt human LRRK2, catalytic site, or G2019S human LRRK2, catalytic site (ThermoFisher/USA), 2 nM Eu-Anti-GST Antibody, 10 nM Kinase Tracer 236 in 1× Kinase Buffer A. For NUAK1: 8 nM wt human NUAK1, full length (ThermoFisher/USA), 2 nM Eu-Anti-His Antibody, 5 nM Kinase Tracer 236 in 1× Kinase Buffer A.
As for `Fc1cccc(F)c1C1=Nc2cn[nH]c2-c2cc(OC(F)(F)F)ccc2N1` [Compound 40, 5-(2,6-difluorophenyl)-9-(trifluoromethoxy)-1,6-dihydrobenzo[d]pyrazolo[3,4-f][1,3]diazepine], the IC50 was in the range of 100 to 1000 nM.

With `Fc1cccc(Cl)c1C1=Nc2cn[nH]c2-c2cc(OC(F)(F)F)ccc2N1` [Compound 41, 5-(2-chloro-6-fluorophenyl)-9-(trifluoromethoxy)-1,6-dihydrobenzo[d]pyrazolo[3,4-f][1,3]diazepine], the IC50 fell in the range of 100 to 1000 nM.

As for `CCc1ccc2c(c1)-c1[nH]ncc1N=C(c1c(F)cccc1F)N2` [Compound 44, 5-(2,6-difluorophenyl)-9-ethyl-1,6-dihydrobenzo[d]pyrazolo[3,4-f][1,3]diazepine], the IC50 lay in the range of 10 to 100 nM.

In the case of `Fc1cccc(F)c1C1=Nc2cn[nH]c2-c2cc(C(F)(F)F)ccc2N1` [Compound 46, 5-(2,6-difluorophenyl)-9-(trifluoromethyl)-1,6-dihydrobenzo[d]pyrazolo[3,4-f][1,3]diazepine], the IC50 was 10 to 100 nM.

Turning to `Fc1cccc(Cl)c1C1=Nc2cn[nH]c2-c2cc(C(F)(F)F)ccc2N1` [Compound 47, 5-(2-chloro-6-fluorophenyl)-9-(trifluoromethyl)-1,6-dihydrobenzo[d]pyrazolo[3,4-f][1,3]diazepine], the IC50 was 100 to 1000 nM.

Regarding `FCc1ccc2c(c1)-c1[nH]ncc1N=C(c1c(F)cccc1F)N2` [Compound 51, 5-(2,6-difluorophenyl)-9-(fluoromethyl)-1,6-dihydrobenzo[d]pyrazolo[3,4-f][1,3]diazepine], the IC50 was in the range of 100 to 1000 nM.

For `Fc1cccc(F)c1C1=Nc2cn[nH]c2-c2cc(-c3ccc[nH]3)cnc2N1` [Compound 87, 5-(2,6-difluorophenyl)-9-(1H-pyrrol-2-yl)-1,6-dihydropyrazolo[4,3-d]pyrido[3,2-f][1,3]diazepine], the IC50 is 100 to 1000 nM.

On to `CC(C)Oc1ccc2c(c1)NC(c1c(F)cccc1F)=Nc1cn[nH]c1-2` [Compound 100, 5-(2,6-difluorophenyl)-8-isopropoxy-1,6-dihydrobenzo[d]pyrazolo[3,4-f][1,3]diazepine], for which the IC50 was in the range of 100 to 1000 nM.

As for `Fc1cccc(F)c1C1=Nc2cn[nH]c2-c2cc(OC3CCOCC3)ccc2N1` [Compound 102, 5-(2,6-difluorophenyl)-9-((tetrahydro-2H-pyran-4-yl)oxy)-1,6-dihydrobenzo[d]pyrazolo[3,4-f][1,3]diazepine], the IC50 fell in the range of 100 to 1000 nM.

For `CN(C)C(=O)Oc1ccc2c(c1)-c1[nH]ncc1NC(c1c(F)cccc1F)=N2` [Compound 136, 5-(2,6-difluorophenyl)-1,4-dihydrobenzo[d]pyrazolo[3,4-f][1,3]diazepin-9-yl dimethylcarbamate], the IC50 lay in the range of 100 to 1000 nM.

In the case of `Fc1cccc(F)c1C1=Nc2c(C3CC3)n[nH]c2-c2ccccc2N1` [Compound 137, 3-cyclopropyl-5-(2,6-difluorophenyl)-1,6-dihydrobenzo[d]pyrazolo[3,4-f][1,3]diazepine], the IC50 fell in the range of 100 to 1000 nM.

With `NC(=O)c1cnc2c(c1)-c1[nH]ncc1N=C(c1c(F)cccc1F)N2` [Compound 140, 5-(2,6-difluorophenyl)-1,6-dihydropyrazolo[4,3-d]pyrido[3,2-f][1,3]diazepine-9-carboxamide], the IC50 was in the range of 100 to 1000 nM.

For the compound `CSc1n[nH]c2c1NC(c1c(F)cccc1F)=Nc1ccc(C)cc1-2` [Compound 145, 5-(2,6-difluorophenyl)-9-methyl-3-(methylthio)-1,4-dihydrobenzo[d]pyrazolo[3,4-f][1,3]diazepine], the IC50 was in the range of 100 to 1000 nM.

Turning to `CCc1cc(F)c2c(c1)-c1[nH]ncc1NC(c1c(F)cccc1F)=N2` [Compound 167, 5-(2,6-difluorophenyl)-9-ethyl-7-fluoro-1,4-dihydrobenzo[d]pyrazolo[3,4-f][1,3]diazepine], the IC50 fell in the range of 100 to 1000 nM.

Turning to `COc1cc(F)c(C2=Nc3cn[nH]c3-c3cc(C)ccc3N2)c(F)c1` [Compound 173, 5-(2,6-difluoro-4-methoxyphenyl)-9-methyl-1,6-dihydrobenzo[d]pyrazolo[3,4-f][1,3]diazepine], the IC50 fell in the range of 10 to 100 nM.

Take `Cc1ccc2c(c1)-c1[nH]ncc1N=C(c1c(F)cc(F)cc1F)N2` [Compound 175, 9-methyl-5-(2,4,6-trifluorophenyl)-1,6-dihydrobenzo[d]pyrazolo[3,4-f][1,3]diazepine]: the IC50 lay in the range of 10 to 100 nM.

Consider `Cc1ccc2c(c1)-c1[nH]ncc1N=C(c1c(F)cc(Br)cc1F)N2` [Compound 176, 5-(4-bromo-2,6-difluorophenyl)-9-methyl-1,6-dihydrobenzo[d]pyrazolo[3,4-f][1,3]diazepine], for which the IC50 was 100 to 1000 nM.

Turning to `Cc1ccc2c(c1)-c1[nH]ncc1N=C(c1c(F)ccc(N)c1F)N2` [Compound 177, 2,4-difluoro-3-(9-methyl-1,6-dihydrobenzo[d]pyrazolo[3,4-f][1,3]diazepin-5-yl)aniline], the IC50 lay in the range of 100 to 1000 nM.

Take `Cc1ccc2c(c1)-c1n[nH]cc1NC(c1c(F)ccc(C)c1F)=N2` [Compound 178, 5-(2,6-difluoro-3-methylphenyl)-9-methyl-2,4-dihydrobenzo[d]pyrazolo[3,4-f][1,3]diazepine]: the IC50 fell in the range of 10 to 100 nM.

Take `Cc1cc(F)c(C2=Nc3ccc(C)cc3-c3n[nH]cc3N2)c(F)c1` [Compound 179, 5-(2,6-difluoro-4-methylphenyl)-9-methyl-2,4-dihydrobenzo[d]pyrazolo[3,4-f][1,3]diazepine]: the IC50 lay in the range of 10 to 100 nM.

In the case of `Cc1ccc2c(c1)-c1[nH]ncc1NC(c1c(F)ccc(F)c1Cl)=N2` [Compound 185, 5-(2-chloro-3,6-difluorophenyl)-9-methyl-1,4-dihydrobenzo[d]pyrazolo[3,4-f][1,3]diazepine], the IC50 lay within 100 to 1000 nM.

`Fc1cccc(Cl)c1C1=Nc2cnc(C(F)(F)F)cc2-c2[nH]ncc2N1` [Compound 188, 5-(2-chloro-6-fluorophenyl)-9-(trifluoromethyl)-1,4-dihydropyrazolo[4,3-d]pyrido[4,3-f][1,3]diazepine]: the IC50 was 100 to 1000 nM.

For `FCCc1ccc2c(c1)-c1n[nH]cc1NC(c1c(F)cccc1F)=N2` [Compound 204, 5-(2,6-difluorophenyl)-9-(2-fluoroethyl)-2,4-dihydrobenzo[d]pyrazolo[3,4-f][1,3]diazepine], the IC50 fell in the range of 100 to 1000 nM.

On to `Cc1ccc2c(c1)-c1n[nH]cc1NC(c1c(F)cc(C(F)(F)F)cc1F)=N2` [Compound 205, 5-(2,6-difluoro-4-(trifluoromethyl)phenyl)-9-methyl-2,4-dihydrobenzo[d]pyrazolo[3,4-f][1,3]diazepine], for which the IC50 lay within 100 to 1000 nM.

In the case of `Cc1ccc2c(c1)-c1n[nH]cc1NC(c1c(F)cccc1C(F)(F)F)=N2` [Compound 206, 5-(2-fluoro-6-(trifluoromethyl)phenyl)-9-methyl-2,4-dihydrobenzo[d]pyrazolo[3,4-f][1,3]diazepine], the IC50 was in the range of 100 to 1000 nM.

In the case of `O=C(Nc1ccc2c(c1)-c1n[nH]cc1NC(c1c(F)cccc1F)=N2)OCc1ccccc1` [Compound 207, benzyl(5-(2,6-difluorophenyl)-2,4-dihydrobenzo[d]pyrazolo[3,4-f][1,3]diazepin-9-yl)carbamate], the IC50 was in the range of 10 to 100 nM.

Regarding `OCCc1ccc2c(c1)-c1n[nH]cc1NC(c1c(F)cccc1F)=N2` [Compound 208, 2-(5-(2,6-difluorophenyl)-2,4-dihydrobenzo[d]pyrazolo[3,4-f][1,3]diazepin-9-yl)ethan-1-ol], the IC50 lay in the range of 100 to 1000 nM.

Take `Fc1cccc(F)c1C1=Nc2ccc(CCCl)cc2-c2n[nH]cc2N1` [Compound 209, 9-(2-chloroethyl)-5-(2,6-difluorophenyl)-2,4-dihydrobenzo[d]pyrazolo[3,4-f][1,3]diazepine]: the IC50 fell in the range of 10 to 100 nM.

On to `Cc1ccc2c(c1)-c1n[nH]c(C)c1NC(c1c(F)cccc1F)=N2` [Compound 212, 5-(2,6-difluorophenyl)-3,9-dimethyl-2,4-dihydrobenzo[d]pyrazolo[3,4-f][1,3]diazepine], for which the IC50 lay within 100 to 1000 nM.
